Assay results reported in the NIST ThermoML archive (doi:10.1021/je7003512).
± gives the expanded uncertainty stated by the source. Each block holds one molecule with its values, some of them ahead of it.

How the values were obtained:
[1] = 298.15 K; 101.33 kPa; Liquid
[2] = refractive index (Na D-line) (dimensionless); conditions: 298.15 K; 101.33 kPa; Liquid; Standard Abbe refractometry
[3] = refractive index (Na D-line) (dimensionless); xn = mol fraction of the nth substance listed; conditions: 298.15 K, 101 kPa, Liquid, Standard Abbe refractometry

refractive index ([3]; x2 = 0): 1.36161 ± 0.00078
Structure (SMILES): CCO [ethanol] + C=COCCC

refractive index ([3]; x1 = 1): 1.36161 ± 0.00078
Structure (SMILES): CCO [ethanol] + CC(C)CC(C)(C)C

mass density [1]: 762.98 ± 1.2 kg/m3
refractive index [2]: 1.39094 ± 0.00078
Structure (SMILES): C=COCCC [propyl vinyl ether]

refractive index ([3]; x1 = 0.0503): 1.39117 ± 0.00078
refractive index ([3]; x1 = 0.1011): 1.39096 ± 0.00078
refractive index ([3]; x1 = 0.2002): 1.39064 ± 0.00078
refractive index ([3]; x1 = 0.3002): 1.39044 ± 0.00078
refractive index ([3]; x1 = 0.3995): 1.39004 ± 0.00078
refractive index ([3]; x1 = 0.4998): 1.38988 ± 0.00078
refractive index ([3]; x1 = 0.6003): 1.38967 ± 0.00078
refractive index ([3]; x1 = 0.7004): 1.38964 ± 0.00078
refractive index ([3]; x1 = 0.7998): 1.38978 ± 0.00078
refractive index ([3]; x1 = 0.9002): 1.39013 ± 0.00078
refractive index ([3]; x1 = 0.9503): 1.39035 ± 0.00078
refractive index ([3]; x1 = 1): 1.39094 ± 0.00078
Structure (SMILES): C=COCCC [propyl vinyl ether] + CC(C)CC(C)(C)C

refractive index ([3]; x1 = 0.0499): 1.36372 ± 0.00078
refractive index ([3]; x1 = 0.1): 1.3655 ± 0.00078
refractive index ([3]; x1 = 0.2002): 1.36949 ± 0.00078
refractive index ([3]; x1 = 0.2996): 1.37356 ± 0.00078
refractive index ([3]; x1 = 0.4004): 1.37689 ± 0.00078
refractive index ([3]; x1 = 0.5006): 1.38018 ± 0.00079
refractive index ([3]; x1 = 0.6005): 1.38262 ± 0.00078
refractive index ([3]; x1 = 0.7005): 1.38517 ± 0.00078
refractive index ([3]; x1 = 0.8002): 1.38724 ± 0.00078
refractive index ([3]; x1 = 0.8997): 1.38925 ± 0.00078
refractive index ([3]; x1 = 0.9492): 1.3901 ± 0.00078
refractive index ([3]; x1 = 1): 1.39094 ± 0.00078
Structure (SMILES): C=COCCC [propyl vinyl ether] + CCO

Continued, molecule first:

Structure (SMILES): CC(C)CC(C)(C)C [2,2,4-trimethylpentane]
mass density [1]: 688.18 ± 1.3 kg/m3
refractive index [2]: 1.39267 ± 0.00078

Structure (SMILES): CC(C)CC(C)(C)C [2,2,4-trimethylpentane] + C=COCCC
refractive index ([3]; x2 = 0): 1.39267 ± 0.00078

Structure (SMILES): CC(C)CC(C)(C)C [2,2,4-trimethylpentane] + CCO
refractive index ([3]; x2 = 0): 1.39267 ± 0.00078
refractive index ([3]; x2 = 0.052): 1.39087 ± 0.00078
refractive index ([3]; x2 = 0.1002): 1.38995 ± 0.00078
refractive index ([3]; x2 = 0.199): 1.38855 ± 0.00078
refractive index ([3]; x2 = 0.2992): 1.38682 ± 0.00078
refractive index ([3]; x2 = 0.3991): 1.38458 ± 0.00078
refractive index ([3]; x2 = 0.5005): 1.38228 ± 0.00078
refractive index ([3]; x2 = 0.6006): 1.37947 ± 0.00078
refractive index ([3]; x2 = 0.7002): 1.37613 ± 0.00078
refractive index ([3]; x2 = 0.8006): 1.37214 ± 0.00078
refractive index ([3]; x2 = 0.8998): 1.36728 ± 0.00078
refractive index ([3]; x2 = 0.9503): 1.36436 ± 0.00078

Structure (SMILES): CCO [ethanol]
mass density [1]: 785.32 ± 1.2 kg/m3
refractive index [2]: 1.36161 ± 0.00078

Structure (SMILES): CO [methanol]
mass density [1]: 786.54 ± 1.2 kg/m3
refractive index [2]: 1.3267 ± 0.00082
